# Laboratory results taken from patent US20260174769A1, “MACROCYCLIC COMPOUNDS AND METHODS OF USE” (AMGEN INC., priority 2022, published 2026).
# pIC50: −log10 of the molar value. Like-named read-outs stand apart in the source and are kept apart here.
# What was measured:
# [1] = system: Phosphorylation of ERK1/2 in AsPC-1 cells; test: Phospho-ERK1/2 MSD Assay; format: cell-based, human; details: AsPC-1 cells, 2 h compound treatment, read-out: 2 h p-ERK (AsPC-1 cells), IC50
# Description: Sixteen hours prior to compound treatment, AsPC-1 cells were seeded in 96-well cell culture plates at a density of 25,000 cells/well and incubated at 37° C., 5% CO2. A compound dose-response titration was diluted in growth media, added to appropriate wells of a cell culture plate, and then incubated at 37° C., 5% CO2 for 2 hours. […] Phosphorylation of ERK1/2 in compound-treated lysates was assayed using Phospho-ERK 1/2 Whole Cell Lysate kits (Meso Scale Discovery K151DWD) according to the manufacturer's protocol. Assay plates were read on a Meso Scale Discovery Sector Imager 6000, and data were analyzed using a 4-parameter logistic model to calculate IC50 values.
# [2] = biological target: His-tagged KRAS G12D protein (Homo sapiens, UniProt P01116, G12D); test: KRAS G12D TR-FRET Assay; format: binding
# Procedure, shortened: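 GDP-loaded His-KRAS G12D (20 nM in HEPES pH 7.4, MgCl2, NaCl, BSA, Tween-20, 10 μM GDP) preincubated with compound 30 min at room temperature, then 20 nM biotinylated KRPep-2d peptide added for 1 h. TR-FRET detection used Eu anti-His and streptavidin-d2, read after 1 h.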
# [3] = biological target: GDP-bound KRAS protein (aa 1-169), containing both G12D and C118A amino acid substitutions (Homo sapiens, UniProt P01116, C118A/G12D); test: KRAS G12D Coupled Nucleotide Exchange Assay; format: biochemical
# Description: KRAS G12D Coupled Nucleotide Exchange Assay
# The assay plates were then read on a PerkinElmer En Vision Multilabel Reader, using AlphaScreen® technology, and data were analyzed using a 4-parameter logistic model to calculate IC50 values.
# [4] = 2 hours compound pre-incubation, SOS-mediated nucleotide exchange
# [5] = TR-FRET, read-out: KRAS G12D Binding IC50
compound,measurement,setting,value
"O=C1OCCCc2c(Cl)cc3[nH]ncc3c2-c2ncc3c(nc(OC[C@@]45CCCN4C[C@H](F)C5)nc3c2F)N2CCCC[C@@](CF)(C2)O1 [Example 339, (26S)-18-chloro-32-fluoro-26-(fluoromethyl)-4-(((2R,7aS)-2-fluorotetrahyrdo-1H-pyrrolo[1,2-a]pyrrol-7a(5H)-yl)methoxy)-23,25-dioxa-1,3,5,9,14,15-hexaazahexacyclo[24.4.1.1~6,10~.0~2,7~.0~11,19~.0~12,16~]dotriaconta-2,4,6,8,10(32),11,13,16,18-nonaen-24-one]",pIC50,[1],6.08
"CC12COCCN(C1)c1nc(OC[C@@]34CCCN3C[C@H](F)C4)nc3cc(nnc13)-c1c(c(Cl)cc3[nH]ncc13)CCCOC(=O)O2 (single isomer, unassigned) [Example 363]",pIC50,[2]; TR-FRET binding,4.69
same,IC50,[3]; [4],5630 nM
"Cc1cc2[nH]ncc2c2c1CCCn1ncc(n1)C1CCCN(C1)c1nc(OC[C@@]34CCCN3C[C@H](F)C4)nc3c(F)c-2ncc13 (stereo partly drawn) [Example 158, 31-Fluoro-25-(((2R,7aS)-2-fluorotetrahydro-1H-pyrrolo[1,2-a]pyrrol-7a(5H)-yl)methoxy)-9-methyl-5,6,14,15,22,24,26,30,33-nonaazaheptacyclo[25.3.1.1˜14,17˜.1˜18,22˜.0˜2,10˜.0˜3,7˜.0˜23,28˜]tritriaconta-1(31),2,4,7,9,15,17(33),23,25,27,29-undecaene]",pIC50,"[1]; Homo sapiens, ASPC1, 2 h",6.56
"CC12COCCN(C1)c1nc(OC[C@@]34CCCN3C[C@H](F)C4)nc3cc(nnc13)-c1c(c(Cl)cc3[nH]ncc13)CCCOC(=O)O2 (single isomer, unassigned) [Example 362]",pIC50,[2]; TR-FRET binding,8.10
same,IC50,[3]; [4],5 nM
Cc1cc2[nH]ncc2c2c1CCCCCCC1(O)CCCN(C1)c1nc(OC[C@@]34CCCN3C[C@H](F)C4)nc3c(F)c-2ncc13 (mixture of isomers) [Example 44],pIC50,[2]; TR-FRET binding,6.80
same,pIC50,[3]; [4],6.58
"O=C1OCCc2c(Cl)cc3[nH]ncc3c2-c2ncc3c(nc(OC[C@@]45CCCN4C[C@H](F)C5)nc3c2F)N2CCC[C@@]3(C[C@H](CO3)O1)C2 (single isomer, unassigned) [Example 314]",pIC50,[2]; TR-FRET binding,7.68
same,IC50,[3]; [4],11 nM
"CN1C(=O)OCCCc2c(Cl)cc3[nH]ncc3c2-c2ncc3c(nc(OC[C@@]45CCCN4C[C@H](F)C5)nc3c2F)N2C[C@H](O)C[C@H]1C2 (single isomer, unassigned) [Example 287]",pIC50,[2]; TR-FRET binding,5.91
same,IC50,[3]; [4],376 nM
"(17R,18R)-9-chloro-31-fluoro-25-(((2R,7aS)-2-fluorotetrahydro-1H-pyrrolo[1,2-α]pyrrol-7a(5H)-yl)methoxy)-19,33-dioxa-5,6,15,22,24,26,30-heptaazaheptacyclo[25.3.1.1~13,16~.1~18,22~.0~2,10~.0~3,7~.0~23,28~]tritriaconta-1(31),2,4,7,9,13,15,23,25,27,29-undecaen-17-ol [Example 395]",pIC50,[2]; [5],5.93
same,pIC50,[3]; [4],6.70
"O=C1N[C@@H]2C[C@H](O)CN(C2)c2nc(OC[C@@]34CCCN3C[C@H](F)C4)nc3c(F)c(ncc23)-c2c(c(Cl)cc3[nH]ncc23)CCCO1 (single isomer, unassigned) [Example 284]",pIC50,[2]; TR-FRET binding,8.30
same,IC50,[3]; [4],2 nM
"Cc1cc2[nH]ncc2c2c1CCCCC(=O)O[C@@H]1CCCN(C1)c1nc(OC[C@@]34CCCN3C[C@H](F)C4)nc3c(F)c-2ncc13 [Example 31, (17R)-30-Fluoro-24-(((2R,7aS)-2-fluorotetrahydro-1H-pyrrolo[1,2-a]pyrrol-7a(5H)-yl)methoxy)-9-methyl-16-oxa-5,6,21,23,25,29-hexaazahexacyclo[24.3.1.1˜17,21˜.0˜2,10˜.0˜3,7˜.0˜22,27˜]hentriaconta-1(30),2,4,7,9,22,24,26,28-nonaen-15-one bis(2,2,2-trifluoroacetate)]",pIC50,[2]; read-out: KRAS G12D Binding IC50,8.15
same,pIC50,[3],8.30
"CN(C)CC1(COc2nc3c4cnc(c(F)c4n2)-c2c(c(Cl)cc4[nH]ncc24)CCOC(=O)O[C@H]2C[C@]4(CCCN3C4)C2)CC1 [Example 334, (1S,3R)-10-chloro-24-((1-((dimethylamino)methyl)cyclopropyl)methoxy)-32-fluoro-4,6-dioxa-13,14,19,23,25,27-hexaazaheptacyclo[25.3.1.1~1,3~.1~18,22~.0~9,17~.0~12,16~.0~21,26~]tritriaconta-9,11,14,16,18(32),19,21,23,25-nonaen-5-one]",pIC50,[2]; TR-FRET binding,8.70
same,pIC50,"[1]; Homo sapiens, ASPC1, 2 h",8.10
"Fc1c2ncc3c(nc(OC[C@@]45CCCN4C[C@H](F)C5)nc13)N1CCO[C@@H](C1)c1coc(n1)CCCc1c(Cl)cc3[nH]ncc3c1-2 (single isomer, unassigned) [Example 389]",pIC50,[2]; [5],5.40
"Fc1cc2[nH]ncc2c2c1CCCCOC[C@@H]1CCCCN(C1)c1nc(OC[C@@]34CCCN3C[C@H](F)C4)nc3c(F)c-2ncc13 (single isomer, unassigned) [Example 239]",pIC50,[2]; TR-FRET binding,8.22
"Fc1c2ncc3c(nc(OC[C@@]45CCCN4C[C@H](F)C5)nc13)N1CCOC[C@@H](COCCCCc3c(Cl)cc4[nH]ncc4c3-2)C1 (single isomer, unassigned) [Example 137]",pIC50,[2]; TR-FRET binding,8.40
"CN(C)CC1(COc2nc3c4cnc(c(F)c4n2)-c2c(c(Cl)cc4[nH]ncc24)CCCOC(=O)O[C@]2(C)COCCN3C2)CC1 (single isomer, unassigned) [Example 331]",pIC50,[2]; TR-FRET binding,8.30
"Cc1cc2[nH]ncc2c2c1CCCC(F)C(=O)N[C@@H]1CCCCN(C1)c1nc(OC[C@@]34CCCN3C[C@H](F)C4)nc3c(F)c-2ncc13 (single isomer, unassigned) [Example 160]",pIC50,[2]; TR-FRET binding,8.40
"Fc1c2ncc3c(nc(OC[C@@]45CCCN4C[C@H](F)C5)nc13)N1CCOC[C@H](COCCCCc3c(Cl)cc4[nH]ncc4c3-2)C1 (single isomer, unassigned) [Example 136]",pIC50,[2]; TR-FRET binding,8.15
"Cc1cc2[nH]ncc2c2c1CCCOC(=O)O[C@@]1(C)COCCN(C1)c1nc(OC[C@@H]3CCCN3C)nc3c(F)c-2ncc13 (single isomer, unassigned) [Example 182]",pIC50,[2]; TR-FRET binding,5.12
"C[C@@]12COCCN(C1)c1nc(OC[C@@H]3CC[C@H]4COCCN43)nc3c(F)c(ncc13)-c1c(c(Cl)cc3[nH]ncc13)CCCOC(=O)O2 (single isomer, unassigned) [Example 309]",pIC50,[2]; TR-FRET binding,8.00
"Fc1c2ncc3c(nc(OC[C@@]45CCCN4C[C@H](F)C5)nc13)N1CCCC[C@@](F)(COCCCCc3c(Cl)cc4[nH]ncc4c3-2)C1 (single isomer, unassigned) [Example 399]",pIC50,[2]; [5],8.40
"O=C1OC/C=C\c2c(Cl)cc3[nH]ncc3c2-c2ncc3c(nc(OC[C@@]45CCCN4C[C@H](F)C5)nc3c2F)N2CCC[C@H](C2)O1 (single isomer, unassigned) [Example 122]",pIC50,[2]; TR-FRET binding,8.30
"O=C1CCCCc2c(Cl)cc3[nH]ncc3c2-c2ncc3c(nc(OC[C@@]45CCCN4C[C@H](F)C5)nc3c2F)N2CC[C@@H]3[C@H](C2)N1CC3(F)F (single isomer, unassigned) [Example 403]",pIC50,[2]; [5],8.52
"O=C1OCCCc2c(Cl)cc3[nH]ncc3c2-c2ncc3c(nc(OC[C@@]45CCCN4C[C@H](F)C5)nc3c2F)N2CC[C@H]3CCN1[C@H]3C2 (single isomer, unassigned) [Example 177]",pIC50,[2]; TR-FRET binding,8.52
"O[C@H]1C[C@H]2COCCCCc3c(Cl)cc4[nH]ncc4c3-c3ncc4c(nc(OC[C@@]56CCCN5C[C@H](F)C6)nc4c3F)N(C1)C2 (single isomer, unassigned) [Example 407]",pIC50,[2]; [5],8.22
